Test system: patients recruited within 30 days after a myocardial infarction
Assay: COLCOT time-to-treatment initiation (TTI) analysis
Format: in vivo, human
Protocol: (§1) The results of the COLCOT trial have been further analyzed to determine if time to treatment initiation (TTI) had any effect on the outcome of the treatment. Three different cutoffs for TTI were used in order to determine the association between early initiation of therapy and clinical outcomes. These cutoffs were determined based on the usual journey of patients with MI. The first 30-day post-MI timeline was divided into three independent periods of time, and analyzed as such: from day 0 to 3, referring to in-hospital management; from day 4 to 7, referring to early post-discharge period and from day 8 to 30, referring to late post-discharge period.
COLCOT was an international multicenter, randomized, double-blinded trial that randomly assigned patients to receive either low-dose colchicine (0.5 mg once daily) or placebo. The study protocol and main results have been published (see, Tardif et al., N Engl J Med 2019). […] Main exclusion criteria were severe heart failure, reduced left ventricular ejection fraction (<35%), recent stroke (<3 months), type 2 MI, recent (<3 years) or planned coronary artery bypass graft (CABG), history of cancer (<3 years), and inflammatory bowel disease or chronic diarrhea. All patients enrolled in the trial benefited from percutaneous coronary intervention whenever indicated and guidelines-directed management of CV disease prior to randomization (see. Tardif et al., N Engl J Med 2019).
The primary efficacy endpoint was a composite of CV death, resuscitated cardiac arrest, MI, stroke, or urgent hospitalization for angina requiring coronary revascularization. The secondary endpoints consisted of the components of the primary efficacy endpoint, all-cause death, and a composite of CV death, resuscitated cardiac arrest, MI, or stroke. Exploratory endpoints included all coronary revascularizations, including both elective and urgent coronary revascularizations.
as §1, with “Three” for “The results of the COLCOT trial have been further analyzed to determine if time to treatment initiation (TTI) had any effect on the outcome of the treatment. Three”
Both the TTI of less than 4 days and the TTI of less than 5 days was were calculated using a basic model (Table 4 and Table 6) as well as an adjusted model (Table 5 and Table 7) which is described below in the statistical analysis section. In all cases, the interaction p-value was not significant (p>0.05), meaning that the conclusion over Placebo vs. Colchicine group can be obtained directly from the respective p-values for HR. In other words, relationships within the placebo and colchicine groups with TTI are both linear/parallel and the interpretation is straightforward.
For the present TTI analysis, the data were centrally analyzed by an independent academic biostatistics center at the Montreal Health Innovations Coordinating Center. The analysis was conducted amongst patients who received at least one dose of the study medication (referred to as the safety population in the main protocol, FIG. 1). TTI was defined as the length of time in days between the index MI and the initiation of the study medication, and three specific cutoffs were analyzed ([…], days 4 to […]). Early initiation of therapy was defined as TTI≤3 days. Baseline characteristics were summarized using counts and percentages for categorical variables and mean±standard deviation (SD) for continuous variables. For each baseline characteristic, comparisons were made using ANOVA for continuous variables and Chi-Square test for categorical variables according to TTI strata. […]

[1] = TTI 4-7 days, colchicine vs. placebo
[2] = TTI ≥ 8 days, colchicine vs. placebo
[3] = delay between randomization and index MI [0-4] days
[4] = delay between randomization and index MI [0-5] days
[5] = delay between randomization and index MI [5-30] days
[6] = delay between randomization and index MI [6-30] days

## COc1cc2c(c(OC)c1OC)-c1ccc(OC)c(=O)cc1[C@@H](NC(C)=O)CC2 [Colchicine, colchicine]
[1]
  Secondary Composite Endpoint, HR (95% CI): 1.04 (0.53-2.03); p = 0.919
  Stroke, HR (95% CI): 0.28 (0.03-2.71); p = 0.272
  Urgent hospitalization for angina requiring coronary revascularization, HR (95% CI): 0.63 (0.18-2.24); p = 0.476
TTI ≥ 8 days, N = 2748
  All Coronary Revascularizations, % of patients: 5.3%
  All Coronary Revascularizations, no. of patients: 72 no.
  All-cause death, % of patients: 1.9%
  All-cause death, no. of patients: 26 no.
  MI, % of patients: 3.8%
  MI, no. of patients: 52 no.
  Primary composite endpoint, % of patients: 5.7%
  Primary composite endpoint, no. of patients: 77 no.
  Resuscitated cardiac arrest, % of patients: 0.1%
  Resuscitated cardiac arrest, no. of patients: 2 no.
  Secondary Composite Endpoint, % of patients: 4.9%
  Secondary Composite Endpoint, no. of patients: 67 no.
  Stroke, % of patients: 0.1%
  Stroke, no. of patients: 2 no.
  Urgent hospitalization for angina requiring coronary revascularization, % of patients: 1.1%
  Urgent hospitalization for angina requiring coronary revascularization, no. of patients: 15 no.
[2]
  All Coronary Revascularizations, HR (95% CI): 0.81 (0.59-1.10); p = 0.172
  All-cause death, HR (95% CI): 0.90 (0.53-1.51); p = 0.684
  MI, HR (95% CI): 0.93 (0.64-1.35); p = 0.710
  Primary composite endpoint, HR (95% CI): 0.82 (0.61-1.11); p = 0.200
  Resuscitated cardiac arrest, HR (95% CI): 1.02 (0.14-7.22); p = 0.986
  Secondary Composite Endpoint, HR (95% CI): 0.92 (0.66-1.28); p = 0.629
  Stroke, HR (95% CI): 0.19 (0.04-0.84); p = 0.029
  Urgent hospitalization for angina requiring coronary revascularization, HR (95% CI): 0.61 (0.32-1.16); p = 0.131
[0-4] days, adjusted Cox model, colchicine vs. placebo
  Time to first positively adjudicated primary endpoint, HR (95% CI): 0.58 (0.36; 0.89)
[0-4] days, adjusted Cox model, colchicine vs. placebo, listed as colchicine
  Time to first positively adjudicated primary endpoint, HR (95% CI): 0.58
[0-4] days, basic Cox model, colchicine vs. placebo
  Time to first positively adjudicated primary endpoint, HR (95% CI): 0.57 (0.37; 0.87)
[0-5] days, adjusted Cox model, colchicine vs. placebo, listed as colchicine
  Time to first positively adjudicated primary endpoint, HR (95% CI): 0.68 (0.45-1.02)
[0-5] days, basic Cox model, colchicine vs. placebo
  Time to first positively adjudicated primary endpoint, HR (95% CI): 0.67 (0.45; 1.01)
[5-20] days, adjusted Cox model, colchicine vs. placebo
  Time to first positively adjudicated primary endpoint, HR (95% CI): 0.84 (0.64; 1.11)
[5-20] days, basic Cox model, colchicine vs. placebo
  Time to first positively adjudicated primary endpoint, HR (95% CI): 0.83 (0.63; 1.09)
[6-30] days, adjusted Cox model, colchicine vs. placebo
  Time to first positively adjudicated primary endpoint, HR (95% CI): 0.35 (0.60, 1.05)
[6-30] days, basic Cox model, colchicine vs. placebo
  Time to first positively adjudicated primary endpoint, HR (95% CI): 0.78 (0.59; 1.03)
Colchicine initiated between days 0 and 3, vs placebo
  reduction in the risk of the composite primary endpoint: 48%
[3]
  Positively adjudicated primary endpoint No, % of patients: (95.6%)
  Positively adjudicated primary endpoint No, no. of patients: 734 no.
  Positively adjudicated primary endpoint Yes, % of patients: (4.4%)
  Positively adjudicated primary endpoint Yes, no. of patients: 34 no.
[4]
  Positively adjudicated primary endpoint No, % of patients: (95.3%)
  Positively adjudicated primary endpoint No, no. of patients: 819 no.
  Positively adjudicated primary endpoint Yes, % of patients: (4.7%)
  Positively adjudicated primary endpoint Yes, no. of patients: 40 no.
[5]
  Positively adjudicated primary endpoint No, % of patients: (94.1%)
  Positively adjudicated primary endpoint No, no. of patients: 1463 no.
  Positively adjudicated primary endpoint Yes, % of patients: (5.9%)
  Positively adjudicated primary endpoint Yes, no. of patients: 91 no.
[6]
  Positively adjudicated primary endpoint No, % of patients: (94.2%)
  Positively adjudicated primary endpoint No, no. of patients: 1378 no.
  Positively adjudicated primary endpoint Yes, % of patients: (5.8%)
  Positively adjudicated primary endpoint Yes, no. of patients: 85 no.
Early initiation of low-dose colchicine
  reduction of secondary efficacy endpoint (CV death, resuscitated cardiac arrest, MI or stroke): 45%
